Experiments:
cholesterol absorption = assay: Amount of cholesterol absorption from the digestive tract into blood; format: in vivo; settings: male Balb/c mouse, oral 3H-cholesterol oleate, plasma radioactivity 6 hours after administration, relative to control = 1; FIG. 3
Description: Cholesterol oleate (Amersham, 100 μCi/mL) radiolabeled with ^3H was mixed with 1% (w/v) sodium carboxylmethyl cellulose (CMC-Na), 1% (v/v) Tween 80, and a non-labeled cholesterol oleate, and then 0.1 mL of the mixture was forcibly administered into each mouse through an oral zonde so that 1 μCi could be delivered to each mouse. Here, the mouse in the control group (an 8-week old male Balb/c with body weight of 25 g) was treated with 400 μg of Orlistat (20 mg/kg), which has an inhibitory effect against cholesterol absorption, and the mouse in the experimental group (an 8-week old male Balb/c with body weight of 25 g) was treated with […] of Laetiporus sulphureus prepared in the Example after concentrating it into 0.1 mL. Six hours after the administration, blood samples were collected from the mice, and plasma was obtained by centrifuging the blood at 40° C. at the rate of 14000 rpm, and the radioactive dose was measured by a liquid scintillator (Beta counter, Beckman LS1801). The Control group was not treated with anything that may inhibit the absorption of cholesterol. The amount of cholesterol absorption was determined as a relative value by dividing the radioactive dose of each group into the radioactive dose of the control group, in which the radioactive dose of the control group was set at ‘1’.

lipid absorption = assay: Amount of triglyceride (lipid) absorption from the digestive tract into blood; format: in vivo; settings: male Balb/c mouse, oral 14C-triolein, plasma radioactivity 6 hours after administration, relative to control = 1; FIG. 4
Description: Triolein (Amersham, 100 μCi/mL) radiolabeled with ^14C was mixed with 1% (w/v) sodium carboxylmethyl cellulose (CMC-Na) and 1% (v/v) Tween 80, and then 0.1 mL of the mixture was forcibly administered into each mouse through an oral zonde so that 1 μCi could be delivered to each mouse. Here, the mouse in the control group (an 8-week old male Balb/c with body weight of 25 g) was treated with 400 μg of Orlistat (20 mg/kg), which is used as an obesity treatment, and the mouse in the experimental group (an 8-week old male Balb/c with body weight of 25 g) was treated with 0.5 mL of the water extract (50 mg/mL) of Laetiporus sulphureus prepared in the Example after concentrating it into 0.1 mL. Six hours after the administration, blood samples were collected from the mice, and plasma was obtained by centrifuging the blood at 40° C. at the rate of 14000 rpm, and the radioactive dose was measured by a liquid scintillator (Beta counter, Beckman LS1801). The control group was not treated with anything. The amount of lipid absorption was determined as a relative value by dividing the radioactive dose of each group into the radioactive dose of the control group, in which the radioactive dose of the control group was set at ‘1’.

With `CCCCCCCCCCC[C@@H](C[C@@H]1OC(=O)[C@H]1CCCCCC)OC(=O)[C@H](CC(C)C)NC=O` [Orlistat] the “inhibitory effect upon cholesterol absorption” value (cholesterol absorption) was “significant inhibitory effect” and the “inhibitory effect upon lipid absorption” value (lipid absorption) was “significant inhibitory effect”.

From patent US20140356393A1, “COMPOSITION FOR TREATMENT OR PREVENTION OF HYPERLIPIDEMIA, CONTAINING WATER EXTRACTS OF LAETIPORUS SULPHUREUS” (POSTECH ACADEMY-INDUSTRY FOUNDATION, priority 2011, published 2014)
